Patent US5298502A, “Method and composition for photodynamic treatment and detection of tumors” (priority 1991, dated 1994)
“Also recorded” adds a separate entry of the source.

Legend:
[1] = LD50, single oral dose, mice; conditions: mouse, in vivo, single oral dose in corn oil and 5% of the agent, 14-day period
[2] = LD50, single oral dose, rats; conditions: rat, in vivo, single oral dose in corn oil containing 15% of the agent, 14-day period
[3] = test system: dark-bleached Chlamydomonas reinhardi mutant y-1; assay: Light-Induced Greening Inhibition Test; assay type: cell-based; conditions: compounds ionized in water, operative ion negatively charged
Protocol: Another test of the capacity of a material for disrupting the plasmalemma of plant material is the Light-Induced Greening Inhibition Test described more particularly in Appendix B below.
Stock Cultures of y-1 cells are maintained axenically in liquid culture on Medium A or M, preferably on Medium M, in a 14/10 hour light/dark cycle at 25° C. in Erlenmeyer flasks which are stoppered with polyurethane plugs. The stock cultures are incubated without supplemental aeration on rotary shakers at 125 rpm. The light intensity at the culture level is 120 μE m^-2 sec^-1 (PAR). Under these conditions the cultures are in a semi-synchronous mode of growth until they reach a stationary phase of 2-4×10^6 cells/mL.
Cells from the stationary phase of stock cultures grown in the presence of light (7.5 mL) are transferred to 750 mL of Medium A in an Erlenmeyer flask. […]
An aqueous, 10% sodium dodecyl sulfate solution (250 μL) and methanol (1 mL) is added to each test well and is mixed thoroughly. […] The supernatants are removed and analyzed in a Beckman Model 35 spectrophotometer between 350 nm and 500 nm for the presence of protophorphrin IX, at 668 nm which is the absorption peak of chlorophyll in this solvent system, and at 720 nm to use as a turbidity background reading.
For each well a greenness value is obtained by subtracting the 720 nm reading from the 668 nm reading. […]

[4] = Tolerance of intraperitoneal injection in mice; conditions: mouse, in vivo, ip, 60% corn oil and 40% DMSO, read-out: tolerated dose
Protocol: c. In tests of the agent injected intraperitoneally in a mixture of 60% corn oil and 40% DMSO it was determined that the mice could tolerate a dose of 100 mg/kg.

male Fisher 344 rat = assay: Proto IX levels in tissues of rat fed agent for 27 days; assay type: in vivo; conditions: feed containing 5000 ppm for 27 days
Text: In another test, a male Fisher 344 rat was fed for 27 days with feed containing 5000 ppm of agent 6c and then sacrificed.
In the foregoing tests of rats and mice the animals were kept on a standard 12 hr. dark-12 hr. light cycle.

chondrosarcoma = assay: Photodynamic treatment of chondrosarcoma in rats fed the agent (Example 9); assay type: in vivo, Sprague-Dawley rats
Protocol: Specifically, three Sprague-Dawley rats of average weight 120 g were placed on a diet of feed containing 2000 ppm of the agent for a period of 6 days. On day 3, chondrosarcoma was implanted into the right hind limb of each rat by injecting 0.3 mL of a suspension of the tumor cells (about one million tumor cells). On day 6 the right hind limb of each rat was shaven and depilated, the size of each tumor was measured, and the tumor area and surrounding skin were then exposed to non-thermal doses of 630 nm light for a total of 270 J/cm^2.
In another set of experiments, 20 of the rats were placed on the same diet as above (i.e. feed containing 2000 ppm of agent), provided ad libitum, for 10 days before the treatment with the light, and the injection of the tumor cell suspension was made after the animals had been on the diet for 7 days. Such an injection causes the formation of a tumor having a well defined vascular network within 1 to 2 days. At the time of the treatment with light the tumors had diameters of 5-8 mm and were free of evident necrosis.

[5] = 20 rats, 2000 ppm in feed for 10 days

Cc1nn(-c2cc(NS(C)(=O)=O)c(Cl)cc2Cl)c(=O)n1C(F)F [Agent 6c]
LD50 at 336 h [1]: > 700 mg/kg
LD50 at 336 h [2]: > 2600 mg/kg
response in light-greening inhibition test [3]: do not respond well in this test
MTD [4]: 100 mg/kg
Proto IX level in muscle tissue (male Fisher 344 rat): only a small increase
Proto IX levels in kidney, intestine, stomach and brain (male Fisher 344 rat): marked increases
Proto IX levels in tissues as compared to a control (male Fisher 344 rat): increased levels of Proto IX as compared to a control
tumors that regrew over time (chondrosarcoma; [5]): ~95%
tumors with visible regression on the day following the light treatment (chondrosarcoma; [5]): 75%
effect on surrounding skin and muscle tissue (chondrosarcoma; 2000 ppm in feed for 6 days, 630 nm light 270 J/cm^2): slightly blanched and showed some swelling
occlusion of blood flow to the treatment area (chondrosarcoma; sodium fluoroscin injection immediately after exposure to light): did not cause apparent occlusion of blood flow
tumor regression on the day after light treatment (chondrosarcoma; three rats, 2000 ppm in feed for 6 days, 630 nm light 270 J/cm^2): two of the rats were found to be apparently free of their tumors; also recorded: the third rat showed almost complete regression of its tumor
